Laboratory results taken from US6339073B1, “Uses of nicotinamide adenine dinucleotide and its derivatives for treatment of malignant and infectious diseases” (Oxigene, Inc., priority 1997, dated 2002).

Columns and labels:
HL60 cells = assay: cells
Description: Assessment of cytotoxicity in HL60 and K562 cells by clonogenic assay. The assay used is based on Schweitzer et al (Exper. Hematol. 21: 573-578, 1993). HL60 or K562 cells were cultured in 96-well microplates, at 800 cells per well, in a medium of 0.6% methyl cellulose (Methocel A4M, Dow Chemicals, USA), 10% fetal calf serum, RPMI 1640 (Life Technologies Ltd, UK), and gentamycin (50 μg/ml, Biological Industries, Israel). Microculture wells received 10 μl of NAD, NADP, NADH, ADP-ribose, nicotinamide (NAM), or 3-acetyl pyridine adenine dinucleotide solutions within which the final concentrations were adjusted to be between 0-5000 μM after addition of 190 μl cell-containing medium. Final methyl cellulose concentration was 0.6%. […] In the case of the radiosensitization experiments, the cells were irradiated with 1-2 Gy gamma radiation 15 minutes before addition of NAD. The central area of the bottom of each well (25% of total) was counted, and the counts of colonies and clusters expressed as % of control in order to avoid influences from inter-experimental baseline variations.

K562 leukemic cells = type: cell-based
Excerpt: Final methyl cellulose concentration was 0.6%.

[1] = system: human lung adenocarcinoma (H2981) xenograft; assay: Evaluation of antitumor activity of NAD in vivo; parameters: species or system Scid mice; settings: NAD i.p. 25 or 50 mg/kg, 21 days
Description: Evaluation of antitumor activity of NAD in vivo. Scid mice (n=10 per group) were transplanted by subcutaneous injection of H-2981 (human adenocarcinoma) tumor tissue suspension in the right flank. When the tumors grew to 80-100 mm2, the animals were divided into three groups: Group 1 was injected i.p. with saline, Group 2 was injected i.p. with NAD at 25 mg/kg dissolved in saline, and Group 3 was injected i.p. with NAD at 50 mg/kg. The treatment schedule was daily Monday through Friday with no treatment Saturday and Sunday for 21 days. Tumor volumes were recorded every other day for 21 days and converted to AUC tumor growth values as previously described in detail (Hua et al, Anti-Cancer Drugs 6: 451-455, 1995).

[2] = system: HL60 (human promyeloid leukemia line) cells; assay: Measurement of in vitro cytotoxicity by apoptosis; type: cell-based
Description: Cell culture. HL60 (human promyeloid leukemia line) cells were cultured at a density of 0.5×106 to 1.0×10^6 cells/ml in RPMI medium supplemented with 10% fetal calf serum (FCS) at 37° C. in a 5% CO2 atmosphere. The cells were harvested by centrifugation and resuspended in fresh medium at a concentration of 1×106 to 2×10^6 cells/ml for bioassay purposes.
Measurement of in vitro cytotoxicity by apoptosis. HL60 cells were exposed in culture to 2 Gy radiation, 100 μM nMCA (neutral metoclopramide, Neu-Sensamide), 0-5000 μM NAD±10 mM, and±NADase inhibitor, 3-acetyl pyridine adenine dinucleotide, given 30 minutes before drug treatment. The % apoptosis was determined after 6 hours. The cytotoxicity was evaluated by morphological identification of apoptotic cells (400 ×magnification with phase contrast microscopy) using trypan blue exclusion (0.1% isotonic solution+5% serum) after 5 minutes incubation at room temperature. Apoptotic cells were identified as having chromatin condensation, shrinkage, membrane blebbing, fragmentation and appearance of “apoptotic bodies” (Kaufman et al, Cancer Res. 53:3976-3985, 1993).

Compound	clonogenic cytotoxicity (number of colonies) (K562 leukemic cells)	clonogenic cytotoxicity (number of colonies) (HL60 cells)	further results
NC(=O)c1ccc[n+]([C@@H]2O[C@H](COP(=O)([O-])OP(=O)(O)OC[C@H]3O[C@@H](n4cnc5c(N)ncnc54)[C@H](O)[C@@H]3O)[C@@H](O)[C@H]2O)c1 [NAD, nicotinamide adenine dinucleotide]	the same		IC50 (HL60 cells; Homo sapiens, HL-60, 144 h, read-out: Doses that result in >50% inhibition of clonogenicity): < 500 µM; body weight loss or acute symptoms [1]: no significant body weight loss or acute symptoms
NC(=O)C1=CN([C@@H]2O[C@H](COP(=O)(O)OP(=O)(O)OC[C@H]3O[C@@H](n4cnc5c(N)ncnc54)[C@H](O)[C@@H]3O)[C@@H](O)[C@H]2O)C=CC1 [NADH]		equally effective at inducing cytotoxicity	
Nc1ncnc2c1ncn2[C@@H]1O[C@H](COP(=O)(O)OP(=O)(O)OC[C@H]2OC(O)[C@H](O)[C@@H]2O)[C@@H](O)[C@H]1O (some centres unmarked) [ADP-ribose]	the same	equally effective at inducing cytotoxicity	
NC(=O)c1cccnc1 [Nicotinamide, nicotinamide]		little to no effect on clonogenicity	
CCN(CC)CCNC(=O)c1cc(Cl)c(N)cc1OC [nMCA, neutral metoclopramide]			effect of NADase inhibitor on drug induced apoptosis ([2]; 10 mM 3-acetyl pyridine adenine dinucleotide given 30 minutes before drug, 6 hours): unaffected by the presence of the NADase inhibitor
CC(=O)c1ccc[n+]([C@@H]2O[C@H](COP(=O)([O-])OP(=O)(O)OC[C@H]3O[C@@H](n4cnc5c(N)ncnc54)[C@H](O)[C@@H]3O)[C@@H](O)[C@H]2O)c1 [3-acetyl pyridine adenine dinucleotide, reference compound]	can nonetheless show cytotoxicity	can nonetheless show cytotoxicity	induction of apoptosis ([2]; % apoptosis after 6 hours, without NADase inhibitor): cannot induce cytoxicity by apoptosis
